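All cell lines were grown in 96-well plates and treated with compound for 48 hours. Definition used: TGI = concentration required for complete inhibition of growth.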
How the values were obtained:
Experiment in all cases: NCI tumour cell line growth inhibition, 48 h
M19-MEL melanoma = system: M19-MEL melanoma
SNB-78 CNS = system: SNB-78 CNS
P388/ADR leukemia = system: P388/ADR leukemia
SN12K1 renal = system: SN12K1 renal
SK-MEL-5 melanoma = system: SK-MEL-5 melanoma
XF 498 CNS = system: XF 498 CNS
DMS 273 small cell lung = system: DMS 273 small cell lung
U251 CNS = system: U251 CNS
KM20L2 colon = system: KM20L2 colon
HOP-18 NSCLC = system: HOP-18 NSCLC
P388 leukemia = system: P388 leukemia
DMS 114 small cell lung = system: DMS 114 small cell lung
DLD-1 colon = system: DLD-1 colon
LXFL 529 NSCLC = system: LXFL 529 NSCLC
RXF-631 renal = system: RXF-631 renal

`Nc1ccc(N=Nc2ccc(/C=C/c3ccc(N=Nc4ccc(N)c5ccc(S(=O)(=O)O)cc45)cc3S(=O)(=O)O)c(S(=O)(=O)O)c2)c2cc(S(=O)(=O)O)ccc12` was tested, and the TGI (M19-MEL melanoma) was over 100 µM, the TGI (SNB-78 CNS) was over 100 µM and the TGI (P388/ADR leukemia) was over 100 µM. It also gave a TGI (SN12K1 renal) of over 100 µM, a TGI (SK-MEL-5 melanoma) of over 100 µM and a TGI (XF 498 CNS) of over 100 µM. It also gave a TGI (DMS 273 small cell lung) of over 100 µM, a TGI (U251 CNS) of over 100 µM and a TGI (KM20L2 colon) of over 100 µM. The TGI (HOP-18 NSCLC) was over 100 µM, the TGI (P388 leukemia) was over 100 µM and the TGI (DMS 114 small cell lung) was over 100 µM. For the same compound, the TGI (DLD-1 colon) was over 100 µM.
`CC[C@@]1(O)C(=O)OCc2c1c(Cl)c1n(c2=O)Cc2cc3ccccc3nc2-1` gave a TGI (LXFL 529 NSCLC) of over 100 µM, a TGI (M19-MEL melanoma) of over 30.7 µM and a TGI (SNB-78 CNS) of 84 µM. For the same compound, the TGI (RXF-631 renal) was 18.5 µM, the TGI (SK-MEL-5 melanoma) was 5.42 µM and the TGI (XF 498 CNS) was 15.8 µM. The TGI (DMS 273 small cell lung) was 8.12 µM, the TGI (U251 CNS) was 11.5 µM and the TGI (KM20L2 colon) was over 100 µM. It also gave a TGI (HOP-18 NSCLC) of over 28.5 µM, a TGI (DMS 114 small cell lung) of 15.9 µM and a TGI (DLD-1 colon) of over 100 µM.

Source: PubChem BioAssay (NCI)
